One data set deals with KB. The experiment in a line: Cytotoxicity against human KB cells at 3.2 ug/mL after 48 hrs by XTT assay. The data set is classed as functional. (In general: Tetrazolium assays rely on reduction of a dye to a coloured formazan, in cell work by metabolically active cells.)
For data set [1], the target named is Xanthine dehydrogenase/oxidase (Homo sapiens, UniProt P47989). The experiment in a line: Inhibition of xanthine oxidase by spectrophotometry.
Data set [2] in a line: ABTS radical scavenging activity assessed as trolox equivalents by TEAC assay. In kind it is physicochemical.

SMILES strings stand for the structures. pIC50: −log10 of the molar value.

By inhibition is commonly meant the drop in the measured response relative to a control, in per cent. For orientation: pIC50 means −log10 of the IC50, conventionally taken in molar units. Lower therefore signals a high IC50.

Xanthine dehydrogenase/oxidase, sequence (P47989 whole entry): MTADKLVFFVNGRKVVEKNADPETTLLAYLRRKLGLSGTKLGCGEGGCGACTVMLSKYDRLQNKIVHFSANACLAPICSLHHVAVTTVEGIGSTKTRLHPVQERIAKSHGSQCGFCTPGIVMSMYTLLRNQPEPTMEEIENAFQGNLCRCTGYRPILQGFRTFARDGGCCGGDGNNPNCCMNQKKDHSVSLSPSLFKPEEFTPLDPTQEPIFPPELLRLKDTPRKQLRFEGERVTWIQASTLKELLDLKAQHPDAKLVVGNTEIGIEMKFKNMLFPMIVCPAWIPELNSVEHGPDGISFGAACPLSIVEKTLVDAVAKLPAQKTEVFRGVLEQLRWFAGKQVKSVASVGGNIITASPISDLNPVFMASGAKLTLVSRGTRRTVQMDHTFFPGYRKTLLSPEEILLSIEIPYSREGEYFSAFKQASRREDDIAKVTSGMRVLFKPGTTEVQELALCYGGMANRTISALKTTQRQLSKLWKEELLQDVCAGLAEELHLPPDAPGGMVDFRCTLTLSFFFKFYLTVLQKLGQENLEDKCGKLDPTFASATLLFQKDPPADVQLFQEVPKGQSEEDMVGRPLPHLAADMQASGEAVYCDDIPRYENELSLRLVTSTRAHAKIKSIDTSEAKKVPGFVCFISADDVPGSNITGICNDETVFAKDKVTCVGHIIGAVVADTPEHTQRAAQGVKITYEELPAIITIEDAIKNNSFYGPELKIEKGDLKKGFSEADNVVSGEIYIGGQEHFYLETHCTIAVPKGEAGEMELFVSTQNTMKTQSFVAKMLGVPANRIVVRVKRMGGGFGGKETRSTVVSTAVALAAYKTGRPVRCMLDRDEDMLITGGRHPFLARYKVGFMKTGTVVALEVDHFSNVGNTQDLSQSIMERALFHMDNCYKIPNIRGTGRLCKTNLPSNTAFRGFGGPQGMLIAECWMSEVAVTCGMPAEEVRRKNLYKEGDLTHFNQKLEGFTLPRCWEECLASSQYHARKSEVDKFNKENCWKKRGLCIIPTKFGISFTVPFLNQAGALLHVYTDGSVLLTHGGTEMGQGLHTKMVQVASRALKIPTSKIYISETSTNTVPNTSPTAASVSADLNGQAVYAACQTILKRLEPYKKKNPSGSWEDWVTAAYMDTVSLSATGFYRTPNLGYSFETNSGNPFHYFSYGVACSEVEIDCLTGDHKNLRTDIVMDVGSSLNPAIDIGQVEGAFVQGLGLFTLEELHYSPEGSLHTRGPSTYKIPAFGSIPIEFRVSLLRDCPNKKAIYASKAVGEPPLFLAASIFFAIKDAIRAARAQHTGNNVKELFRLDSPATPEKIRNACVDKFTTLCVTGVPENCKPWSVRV

For `Cn1cc2c3c1C(=O)C(NCCc1ccc(O)cc1)=CC3=[N+](C)CC2.[Cl-]` [MAKALUVAMINE P], 3.2 µg/mL produced 64% inhibition in the data set on KB. This compound also showed a pIC50 in data set [1] of 4.78. For the same compound, the Activity in data set [2] is 0.341.

The values are drawn from ChEMBL document CHEMBL1156367, “Makaluvamine P, a new cytotoxic pyrroloiminoquinone from Zyzzya cf. fuliginosa” (J Nat Prod, 2001).
